Test results taken from PubChem BioAssay (NCI).
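In this assay, cells in 96-well plates receive the compound at five concentrations for 48 hours. Endpoints are linearly interpolated between the surrounding concentrations. GI50 marks 50% less growth. At the TGI there is no net growth.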

Columns and labels:
Assay in all cases: NCI tumour cell line growth inhibition, 48 h
ACHN renal = test system: ACHN renal
HL-60(TB) leukemia = test system: HL-60(TB) leukemia
RPMI-8226 leukemia = test system: RPMI-8226 leukemia
HCT-15 colon = test system: HCT-15 colon
HT29 colon = test system: HT29 colon
K-562 leukemia = test system: K-562 leukemia
MDA-MB-435 = test system: MDA-MB-435
MCF7 breast = test system: MCF7 breast
OVCAR-3 ovarian = test system: OVCAR-3 ovarian
SK-MEL-28 melanoma = test system: SK-MEL-28 melanoma

Row | Structure (SMILES) | TGI (ACHN renal) | TGI (HL-60(TB) leukemia) | TGI (RPMI-8226 leukemia) | TGI (HCT-15 colon) | TGI (HT29 colon) | TGI (K-562 leukemia) | TGI (MDA-MB-435) | TGI (MCF7 breast) | TGI (OVCAR-3 ovarian) | TGI (SK-MEL-28 melanoma) | GI50 (ACHN renal) | GI50 (HL-60(TB) leukemia) | GI50 (RPMI-8226 leukemia) | GI50 (HCT-15 colon) | GI50 (HT29 colon) | GI50 (K-562 leukemia) | GI50 (OVCAR-3 ovarian) | GI50 (MDA-MB-435) | GI50 (SK-MEL-28 melanoma) | GI50 (MCF7 breast)
1 | O=[N+]([O-])c1ccc2nc(=S)[nH]n2c1 | > 100 µM | > 100 µM | > 100 µM | > 100 µM | > 100 µM | > 100 µM | > 100 µM | > 100 µM | – | – | – | – | – | – | – | – | – | – | – | –
2 | Nc1ncnc2c1ncn2C1OC(C(=O)OCCO)C(O)C1O (centres undefined) | > 100 µM | > 100 µM | > 100 µM | > 100 µM | > 100 µM | > 100 µM | > 100 µM | > 100 µM | > 100 µM | > 100 µM | – | – | – | – | – | – | – | – | – | –
3 | COc1cc(OC)c2c(c1Cl)O[C@]1(C2=O)C(OCc2ccccc2)=CC(=O)C[C@H]1C | > 100 µM | 3.52 µM | 17 µM | > 100 µM | 15.8 µM | 29.1 µM | 0.549 µM | 25.9 µM | 11.4 µM | 24.8 µM | 0.785 µM | 0.531 µM | 1.13 µM | 0.487 µM | 0.534 µM | 0.538 µM | 0.986 µM | 0.23 µM | 1.85 µM | 0.395 µM
4 | CCCCCCCCC(=O)NCCN(CCN)C(=O)CCCCCCCC | 19.2 µM | 5.32 µM | 6.25 µM | 10.3 µM | 7.15 µM | 8.27 µM | 29.7 µM | 17.5 µM | 30.9 µM | 30.5 µM | – | – | – | – | – | – | – | – | – | –
5 | CN1CCN(Cc2ccc(NC(=O)c3cncc(C#Cc4ncc5ccccn45)c3)cc2C(F)(F)F)CC1 | 3.8 µM | 2.76 µM | 4.15 µM | 7.4 µM | 8.96 µM | 2.91 µM | 5.23 µM | 3.07 µM | 8.21 µM | 6.19 µM | 0.967 µM | 0.845 µM | 0.858 µM | 1.2 µM | 0.827 µM | 0.0025 µM | 2.43 µM | 2.01 µM | 2.82 µM | 0.738 µM
6 | COn1cc(C(=O)N=C(SC)SC)c2ccccc21 | 47.7 µM | – | > 100 µM | 62.5 µM | > 100 µM | 17.5 µM | 39.7 µM | > 100 µM | 51.5 µM | > 100 µM | 22 µM | – | 17.9 µM | 22.4 µM | 42.1 µM | 2.29 µM | 17.8 µM | 14 µM | 80 µM | > 100 µM
7 | C[C@H](CCCOS(C)(=O)=O)[C@H]1CC[C@H]2[C@@H]3CC[C@@H]4C[C@H](OS(C)(=O)=O)CC[C@]4(C)[C@H]3CC[C@]12C | – | – | 1260 µM | > 2500 µM | > 2500 µM | – | – | 692 µM | – | > 2500 µM | 395 µM | – | 69.9 µM | 1020 µM | 1920 µM | – | 2170 µM | 1140 µM | 1060 µM | 323 µM
